From patent US6107034A, “GATA-3 expression in human breast carcinoma” (The Board of Trustees of the Leland Stanford Junior …, priority 1998, dated 2000)

Tests used:
[1] = tested on: MCF7 cells; assay: Northern blot of MCF7 cells in the presence and absence of β-estradiol; assay type: cell-based, human; conditions: 1×10^-8 M β-estradiol for three days
Protocol: All cell lines were obtained from American Type Culture Collection (ATCC, Rockville, Md.) and were maintained as described previously. MCF7 cells that were induced with estradiol were grown under normal conditions until approximately 25% confluence. The media was subsequently changed to phenol-red free Minimal Essential Media (Gibco BRL, Gaithersburg, Md.) supplemented with 10% charcoal-stripped fetal calf serum, 10 U/ml penicillin G, 10 μg/ml streptomycin, 6 ng/ml bovine insulin for six days. MCF7 cells were induced with 1×10^-8 M water soluble β-estradiol (Sigma Chemical Company, St. Louis, Mo.) for three days.
Poly(A+)mRNA was isolated from breast carcinoma cell lines and analyzed by Northern blot as described previously (Carmeci et al. (1997) Genomics 45, 607-617). The GATA-3 cDNA probe was prepared by reverse transcribing 1.6 μg of MCF7 poly(A)+RNA using the GeneAmp® RNA PCR Kit (Perkin Elmer, Foster City, Calif.) as per the manufacturer's recommendations. Resultant cDNA was used as template to PCR amplify (GeneAmp® PCR Kit, Perkin Elmer) the region of the GATA-3 cDNA from +530 to +1712 (numbered in accordance with the GATA-3 cDNA sequence, Genbank accession number X55122) using primers GATA3-2 (SEQ ID NO:3) [5-[…]-3'] and GATA3-4 (SEQ ID NO:4) [5'-[…]-3']. […]

[2] = tested on: free GATA-3; assay: Gel retardation assay, free GATA-3 binding to GATA DNA probe; parameters: species or system human; conditions: 1 μM, gel shift
Excerpt: Acids Res 11, 1475-1489. […] (Santa Cruz Biotechnology) was also used as a competitor.

[3] = molecular target: GATA-3 (TnT-GATA3) (Homo sapiens, UniProt P23771 P23771:1-443); assay: competition; mutant cold competitor at 100-fold molar excess; text states only appropriate sequence specificity by gel shift competition; conditions: tags: none stated
Protocol: Acids Res* 11, 1475–1489. […] (Santa Cruz Biotechnology) was also used as a competitor.
It was important to determine if functional GATA-3 protein is expressed in these cells. The GATA-3 cDNA was cloned from the MCF7 cells and GATA-3 protein was expressed using in vitro transcription/translation. […] MCF7 nuclear extracts were also tested for GATA binding activity.

GATA-3 (TnT-GATA3), sequence (P23771 whole entry, one chain of several): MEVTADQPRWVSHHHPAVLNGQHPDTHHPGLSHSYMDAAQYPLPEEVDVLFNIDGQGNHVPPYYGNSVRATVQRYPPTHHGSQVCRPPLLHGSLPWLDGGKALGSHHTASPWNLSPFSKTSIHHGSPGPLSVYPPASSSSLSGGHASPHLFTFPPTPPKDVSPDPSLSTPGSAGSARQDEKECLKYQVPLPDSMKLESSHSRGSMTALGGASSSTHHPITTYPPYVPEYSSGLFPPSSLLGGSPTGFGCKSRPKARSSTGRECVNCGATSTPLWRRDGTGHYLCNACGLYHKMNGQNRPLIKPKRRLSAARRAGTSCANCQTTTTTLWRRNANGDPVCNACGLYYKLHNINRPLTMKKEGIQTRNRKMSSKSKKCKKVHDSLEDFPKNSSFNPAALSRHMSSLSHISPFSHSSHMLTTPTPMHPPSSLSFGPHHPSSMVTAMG

For `C[C@]12CC[C@@H]3c4ccc(O)cc4CC[C@H]3[C@@H]1CC[C@@H]2O` [estradiol, β-estradiol], the “expression of GATA-3 mRNA” value [1] was “did not change” and the “pS2 expression (mRNA)” value [1] was “induced”.

For `CC/C(=C(\c1ccccc1)c1ccc(OCCN(C)C)cc1)c1ccccc1` [tamoxifen], the “interference with free GATA-3 binding DNA” value [2] was “does not interfere with free GATA-3 binding DNA”.

B1: mutant GATA oligonucleotide (dsDNA)
DNA 1: CACTTCTTAACAGAAAGTCTTAACTCT
DNA 2: AGAGTTAAGACTTTCTGTTAAGAAGTG
modifications: [NONE]
B1: no binding [3].
